The source of these data is US20160376240A1, “6 Phenyl or 6 Pyridin 3 YL Indazole Derivatives and Methods of Use” (ABBVIE INC., priority 2014, published 2016).

What is called IC50 is the concentration at which inhibition is half-maximal. Lower therefore signals inhibition by little substance.

Common to all, as to type: biochemical
The target of one assay is T1, TrkA (Homo sapiens, UniProt P04629).
T1 construct: purchased Invitrogen PV3144
In words: TrkA kinase inhibition, HTRF assay. The following applies: LCK peptide substrate 125 nM, TrkA 2-10 nM pre-incubated with ATP 200 μM. Summed up:
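TrkA (2-10 nM) preactivated 20 min with 200 μM ATP in HEPES pH 7.4 with Mg2+/Mn2+, then compound for 10 min, then 125 nM biotinylated LCK-peptide for 1 h at ambient temperature. HTRF 665/620 ratio read; IC50 fitted from initial-rate percent inhibition.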
(In general: TR-FRET usually uses a lanthanide donor and a delayed reading to cut background.)

The target of the next assay is T2, TrkC (Homo sapiens, UniProt Q16288).
T2 construct: purchased Invitrogen PV3617
Nature of the assay: TrkC kinase inhibition, HTRF assay. To be noted: LCK peptide substrate, assay ATP concentration targeted 5 μM. How it is done:
(§1) TrkA, TrkB, and TrkC enzymes were obtained from Invitrogen (as catalog numbers PV3144, PV3616, and PV3617, respectively). The ability of a compound to inhibit the enzymatic activity of the TrkA, TrkB, and TrkC enzymes was determined in separate assays. Enzyme activity was measured in an HTRF® (homogeneous time resolved fluorescence) assay, which detects enzymatic phosphorylation of a biotinylated synthetic peptide substrate (an LCK peptide analog, biotin-ahx-GAEEEIYAAFFA, from Genemed Synthesis). Phosphorylation is assessed by HTRF® in the presence of an anti-phosphotyrosine antibody conjugated to Eu^3+ cryptate (Cisbio) as donor fluorophore, and streptavidin conjugated to allophycocyanin (ProZyme) as acceptor fluorophore. The HTRF® signal was detected at two different wavelengths (620 nm and 665 nm) which were used to calculate the fluorescence ratio.
(§2) Each enzyme was titrated to a concentration optimized to ensure accurate measurement of the initial reaction rate. To allow the Trk enzymes to undergo activation and auto-phosphorylation, a 20 minute pre-incubation with ATP was carried out (at twice the final targeted enzyme and ATP concentration) prior to addition of test compound and the peptide substrate.
(§3) TrkA in vitro assays were performed by pre-incubating TrkA (2-10 nM) with ATP (200 μM) for 20 minutes at ambient temperature in 50 mM HEPES pH 7.4, 10 mM MgCl2, 2 mM MnCl2, 100 μM Na3VO4, 1 mM dithiothreitol, 0.01% BSA (bovine serum albumin). Then, to the activated Trk enzyme mixture was added the test compound in 2% dimethyl sulfoxide. After 10 minutes, the peptide substrate (125 nM) was added. After 1 hour, enzyme reactions were terminated by addition of equal reaction volumes of detection/stop reagent (containing 0.2 μg/mL anti-phosphotyrosine monoclonal antibody labeled with europium from Cisbio (catalog# PT66-K), and 4 μg/mL PhycoLink® Streptavidin-Allophycocyanin conjugate from ProZyme (catalog# PJ25S) in 60 mM EDTA in 40 mM HEPES pH 7.4, 480 mM KF, 0.01% Tween® 20 and 0.1% BSA bovine serum albumin) Reaction plates were stored at 4° C. overnight before reading the fluorescence ratio signal on a PerkinElmer EnVision™ fluorescence detector. Individual reaction wells were stopped at time points to obtain reaction rates. The test inhibitor compounds were assayed in duplicate, at half-log serial dilutions over a range of concentrations (e.g. starting at 50 μM or 5 μM as the high compound concentration). The percent Trk enzyme inhibition was calculated from the initial rates of the inhibited reactions relative to the uninhibited control. IC50 values were calculated by fitting the inhibition percent to the concentration of inhibitor [I] in the assay in equation 1 below, to solve for the IC50.
(§4) Inhibition %=100[I]/([I]+[IC50]) equation 1
(§5) The TrkB and TrkC in vitro assays were performed as described above, except that for these enzymes the assay ATP concentration targeted was 5 μM.

The target of the next assay is T3, TrkB (Homo sapiens, UniProt Q16620).
T3 construct: purchased Invitrogen PV3616
In words: TrkB kinase inhibition, HTRF assay. To be noted: LCK peptide substrate, assay ATP concentration targeted 5 μM. The method, then: as §1, §2, §3, §4, §5

T1 sequence (P04629 33-796): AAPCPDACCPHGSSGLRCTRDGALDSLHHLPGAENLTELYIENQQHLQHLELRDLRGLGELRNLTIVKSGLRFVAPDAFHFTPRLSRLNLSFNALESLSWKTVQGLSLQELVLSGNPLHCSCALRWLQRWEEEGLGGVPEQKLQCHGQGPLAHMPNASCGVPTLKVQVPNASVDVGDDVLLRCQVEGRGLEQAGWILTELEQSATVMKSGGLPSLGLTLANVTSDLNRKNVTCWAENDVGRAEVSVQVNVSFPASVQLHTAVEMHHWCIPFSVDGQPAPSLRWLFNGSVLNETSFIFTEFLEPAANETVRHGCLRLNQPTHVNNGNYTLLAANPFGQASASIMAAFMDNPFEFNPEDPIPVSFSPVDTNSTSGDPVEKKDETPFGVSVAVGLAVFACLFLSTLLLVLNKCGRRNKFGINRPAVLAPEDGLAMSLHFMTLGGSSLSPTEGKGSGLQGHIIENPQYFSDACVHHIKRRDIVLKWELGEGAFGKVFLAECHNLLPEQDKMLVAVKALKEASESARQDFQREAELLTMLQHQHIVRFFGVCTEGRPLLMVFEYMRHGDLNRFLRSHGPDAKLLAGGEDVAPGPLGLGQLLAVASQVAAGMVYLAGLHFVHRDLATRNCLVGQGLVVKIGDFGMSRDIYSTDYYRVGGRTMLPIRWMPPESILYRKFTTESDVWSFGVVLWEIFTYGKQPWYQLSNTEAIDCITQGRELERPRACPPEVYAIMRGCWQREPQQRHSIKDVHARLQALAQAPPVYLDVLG
T2 sequence (Q16288 32-839): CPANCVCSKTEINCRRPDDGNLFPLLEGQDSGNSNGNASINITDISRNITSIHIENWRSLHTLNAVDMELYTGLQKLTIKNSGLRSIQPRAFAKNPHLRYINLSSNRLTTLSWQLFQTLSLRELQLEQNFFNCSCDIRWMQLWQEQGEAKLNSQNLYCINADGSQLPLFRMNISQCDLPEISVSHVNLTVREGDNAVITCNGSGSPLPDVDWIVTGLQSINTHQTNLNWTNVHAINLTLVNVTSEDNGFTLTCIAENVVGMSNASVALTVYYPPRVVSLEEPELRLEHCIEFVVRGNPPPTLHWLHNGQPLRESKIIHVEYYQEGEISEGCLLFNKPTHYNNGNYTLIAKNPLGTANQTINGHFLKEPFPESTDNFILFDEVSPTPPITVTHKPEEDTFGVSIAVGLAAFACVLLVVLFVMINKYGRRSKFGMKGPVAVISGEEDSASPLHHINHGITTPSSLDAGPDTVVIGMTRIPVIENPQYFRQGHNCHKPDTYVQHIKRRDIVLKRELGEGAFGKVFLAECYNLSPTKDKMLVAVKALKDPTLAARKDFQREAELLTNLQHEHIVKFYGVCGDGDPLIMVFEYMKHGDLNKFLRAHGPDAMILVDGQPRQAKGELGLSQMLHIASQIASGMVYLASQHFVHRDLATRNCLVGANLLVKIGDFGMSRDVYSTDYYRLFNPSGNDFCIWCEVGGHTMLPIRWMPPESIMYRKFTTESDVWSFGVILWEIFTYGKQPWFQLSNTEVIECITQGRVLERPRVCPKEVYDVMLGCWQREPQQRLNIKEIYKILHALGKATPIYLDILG
T3 sequence (Q16620 32-822): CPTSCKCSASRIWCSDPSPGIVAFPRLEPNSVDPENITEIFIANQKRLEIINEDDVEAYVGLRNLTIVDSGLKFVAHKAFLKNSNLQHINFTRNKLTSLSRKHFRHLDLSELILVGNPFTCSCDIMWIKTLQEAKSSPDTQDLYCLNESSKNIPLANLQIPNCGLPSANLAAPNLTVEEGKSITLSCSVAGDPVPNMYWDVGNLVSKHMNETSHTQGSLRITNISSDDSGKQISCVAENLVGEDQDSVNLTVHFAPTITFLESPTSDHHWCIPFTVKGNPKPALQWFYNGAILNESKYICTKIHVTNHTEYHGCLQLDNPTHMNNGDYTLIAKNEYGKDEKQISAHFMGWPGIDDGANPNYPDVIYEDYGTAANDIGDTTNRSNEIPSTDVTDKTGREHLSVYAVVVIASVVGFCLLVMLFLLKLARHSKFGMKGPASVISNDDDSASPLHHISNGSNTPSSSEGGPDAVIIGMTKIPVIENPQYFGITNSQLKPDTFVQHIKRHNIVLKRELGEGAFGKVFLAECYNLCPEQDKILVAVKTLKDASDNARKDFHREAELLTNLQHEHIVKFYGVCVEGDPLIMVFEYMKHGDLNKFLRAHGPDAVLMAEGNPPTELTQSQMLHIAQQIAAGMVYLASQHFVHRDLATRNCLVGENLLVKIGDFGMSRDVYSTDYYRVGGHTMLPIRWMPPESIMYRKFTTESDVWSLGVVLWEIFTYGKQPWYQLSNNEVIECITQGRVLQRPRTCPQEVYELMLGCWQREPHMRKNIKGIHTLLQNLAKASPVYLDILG

For `NC(=O)c1ccc(-c2cc(OC3CCOCC3)c3c(N)n[nH]c3c2)cc1N1CCN(c2ccccc2)CC1` [Example 1, 4-[3-amino-4-(tetrahydro-2H-pyran-4-yloxy)-1H-indazol-6-yl]-2-(4-phenylpiperazin-1-yl)benzamide], the IC50 at TrkA was found to be 2.66 nM; against TrkC it was 1.03 nM; on TrkB it was 0.786 nM.

In the case of `NC(=O)c1ccc(-c2cc(OC3CCOCC3)c3c(N)n[nH]c3c2)cc1N1CCN(c2cccnc2)CC1` [Example 2, 4-[3-amino-4-(tetrahydro-2H-pyran-4-yloxy)-1H-indazol-6-yl]-2-[4-(pyridin-3-yl)piperazin-1-yl]benzamide], the figures for the IC50 against TrkA, at TrkC and at TrkB were 7.4 nM, 3.85 nM and 3.09 nM, respectively.

On to `NC(=O)c1ccc(-c2cc(OC3CCOCC3)c3c(N)n[nH]c3c2)cc1N1CCN(C2CC2)CC1` [Example 3, 4-[3-amino-4-(tetrahydro-2H-pyran-4-yloxy)-1H-indazol-6-yl]-2-(4-cyclopropylpiperazin-1-yl)benzamide], for which the IC50 at TrkA is 55.3 nM; against TrkC it was 25.7 nM; against TrkB, 20.6 nM.

Take `COc1cncnc1N1CCN(c2cc(-c3cc(OC4CCOCC4)c4c(N)n[nH]c4c3)ccc2C(N)=O)CC1` [Example 6, 4-[3-amino-4-(tetrahydro-2H-pyran-4-yloxy)-1H-indazol-6-yl]-2-[4-(5-methoxypyrimidin-4-yl)piperazin-1-yl]benzamide]: the values for the IC50 on TrkA, on TrkC and against TrkB were 42.1 nM, 23.7 nM and 15 nM, respectively.

As to `Nc1n[nH]c2cc(-c3ccc(C(=O)NC4CC4)c(N4CCN(c5ccccc5)CC4)c3)cc(OC3CCOCC3)c12` [Example 23, 4-[3-amino-4-(tetrahydro-2H-pyran-4-yloxy)-1H-indazol-6-yl]-N-cyclopropyl-2-(4-phenylpiperazin-1-yl)benzamide], the IC50 on TrkA is 15 nM; at TrkC it was 8.53 nM; at TrkB, 8.04 nM.

Consider `CNC(=O)c1ccc(-c2cc(OC3CCOCC3)c3c(N)n[nH]c3c2)cc1N1CCN(c2ccccc2)CC1` [Example 30, 4-[3-amino-4-(tetrahydro-2H-pyran-4-yloxy)-1H-indazol-6-yl]-N-methyl-2-(4-phenylpiperazin-1-yl)benzamide], for which the IC50 at TrkA was 10.4 nM; at TrkC, 1.5 nM; on TrkB, 1.5 nM.

Regarding `CNC(=O)c1ccc(-c2cc(OC(C)C(F)(F)F)c3c(N)n[nH]c3c2)cc1N1CCN(C2CC2)CC1` (stereo not drawn) [Example 34, 4-{3-amino-4-[(1,1,1-trifluoropropan-2-yl)oxy]-1H-indazol-6-yl}-2-(4-cyclopropylpiperazin-1-yl)-N-methylbenzamide], the IC50 on TrkA came out at 318 nM; at TrkC, 318 nM; against TrkB, 330 nM.

Consider `CNC(=O)c1ccc(-c2cc(OC(C)C(F)(F)F)c3c(N)n[nH]c3c2)cc1N1CCN(C2CCCCC2)CC1` (stereo not drawn) [Example 35, 4-{3-amino-4-[(1,1,1-trifluoropropan-2-yl)oxy]-1H-indazol-6-yl}-2-(4-cyclohexylpiperazin-1-yl)-N-methylbenzamide], for which the half-maximal inhibitory concentration (IC50) stood at 59.5 nM against TrkA, 105 nM at TrkC and 91.9 nM against TrkB.

Take `CNC(=O)c1ccc(-c2cc(O[C@@H](C)C(F)(F)F)c3c(N)n[nH]c3c2)cc1N1CCN(C2CCCCC2)CC1` [Example 47, 4-(3-amino-4-{[(2S)-1,1,1-trifluoropropan-2-yl]oxy}-1H-indazol-6-yl)-2-(4-cyclohexylpiperazin-1-yl)-N-methylbenzamide]: the values for the IC50 against TrkA, at TrkC and against TrkB were 232 nM, 300 nM and 268 nM, respectively.

For the molecule `CNC(=O)c1ccc(-c2cc(O[C@H](C)C(F)(F)F)c3c(N)n[nH]c3c2)cc1N1CCN(C2CCCCC2)CC1` [Example 56, 4-(3-amino-4-{[(2R)-1,1,1-trifluoropropan-2-yl]oxy}-1H-indazol-6-yl)-2-(4-cyclohexylpiperazin-1-yl)-N-methylbenzamide], the IC50 stood at 80 nM against TrkA, 37.1 nM against TrkC and 27.8 nM on TrkB.

With `NC(=O)c1ccc(-c2cc(OC3CCCC3)c3c(N)n[nH]c3c2)cc1N1CCN(c2cccnc2)CC1` [Example 69, 4-[3-amino-4-(cyclopentyloxy)-1H-indazol-6-yl]-2-[4-(pyridin-3-yl)piperazin-1-yl]benzamide], the IC50 worked out at 2.95 nM at TrkA, 3.09 nM against TrkC and 1.63 nM at TrkB.

`NC(=O)c1ccc(-c2cc(OC3CCCC3)c3c(N)n[nH]c3c2)cc1N1CCN(CCN2CCOCC2)CC1` [Example 70, 4-[3-amino-4-(cyclopentyloxy)-1H-indazol-6-yl]-2-{4-[2-(morpholin-4-yl)ethyl]piperazin-1-yl}benzamide]: the figures for the IC50 on TrkA, on TrkC and against TrkB were 34.9 nM, 145 nM and 83.7 nM, respectively.

Regarding `NC(=O)c1ccc(-c2cc(OC3CCCC3)c3c(N)n[nH]c3c2)cc1N1CCN(c2ccccc2)CC1` [Example 71, 4-[3-amino-4-(cyclopentyloxy)-1H-indazol-6-yl]-2-(4-phenylpiperazin-1-yl)benzamide], the 50% inhibitory concentration (IC50) is 4.92 nM against TrkA, 1.67 nM at TrkC and 1.5 nM against TrkB.

Consider `NC(=O)c1ccc(-c2cc(OC3CCCC3)c3c(N)n[nH]c3c2)cc1N1CCN(c2ccc(F)cc2)CC1` [Example 72, 4-[3-amino-4-(cyclopentyloxy)-1H-indazol-6-yl]-2-[4-(4-fluorophenyl)piperazin-1-yl]benzamide], for which the values for the IC50 against TrkA, at TrkC and at TrkB were 17.5 nM, 5.35 nM and 4.92 nM, respectively.

In the case of `CC(C)(C)OC(=O)N1CCN(c2cc(-c3cc(OC4CCCC4)c4c(N)n[nH]c4c3)ccc2C(N)=O)CC1` [Example 73, tert-butyl 4-{5-[3-amino-4-(cyclopentyloxy)-1H-indazol-6-yl]-2-carbamoylphenyl}piperazine-1-carboxylate], the results for the IC50 against TrkA, against TrkC and on TrkB were 13.7 nM, 3.53 nM and 3.17 nM, respectively.

In the case of `NC(=O)c1ccc(-c2cc(OC3CCCC3)c3c(N)n[nH]c3c2)cc1N1CCN(C2CCCCC2)CC1` [Example 74, 4-[3-amino-4-(cyclopentyloxy)-1H-indazol-6-yl]-2-(4-cyclohexylpiperazin-1-yl)benzamide], the IC50 is 19 nM on TrkA, 8.32 nM against TrkC and 3.89 nM at TrkB.

With `CC(=O)N1CCN(c2cc(-c3cc(OC4CCCC4)c4c(N)n[nH]c4c3)ccc2C(N)=O)CC1` [Example 77, 2-(4-acetylpiperazin-1-yl)-4-[3-amino-4-(cyclopentyloxy)-1H-indazol-6-yl]benzamide], the IC50 on TrkA worked out at 51.1 nM; at TrkC, 158 nM; against TrkB, 84.4 nM.

As for `CC(Oc1cc(-c2ccc(C(N)=O)c(N3CCN(c4cccnc4)CC3)c2)cc2[nH]nc(N)c12)C(F)(F)F` (stereo not drawn) [Example 91, 4-{3-amino-4-[(1,1,1-trifluoropropan-2-yl)oxy]-1H-indazol-6-yl}-2-[4-(pyridin-3-yl)piperazin-1-yl]benzamide], the IC50 was determined as 5.31 nM against TrkA, 2.89 nM on TrkC and 2.01 nM against TrkB.

Turning to `CC(Oc1cc(-c2ccc(C(N)=O)c(N3CCN(c4ccccc4)CC3)c2)cc2[nH]nc(N)c12)C(F)(F)F` (stereo not drawn) [Example 92, 4-{3-amino-4-[(1,1,1-trifluoropropan-2-yl)oxy]-1H-indazol-6-yl}-2-(4-phenylpiperazin-1-yl)benzamide], the concentration for half-maximal inhibition (IC50) on TrkA is 3.35 nM; at TrkC it was 1.72 nM; at TrkB it was 1.27 nM.
